Measurements taken from paper PMC12656268, “Venom Peptides Across Asian and American Tarantulas Utilize Dual Pharmacology to Target Activation and Fast Inactivation of Voltage-Gated Sodium Channels” (Toxins, 2025).
“And” between values parts separate entries of the source, which are not always exact repeats. Equal entries are not always repeated. Positions of bridges follow the written chain, without caps; N, C: chain ends. Residues, ends and D or L forms follow the SMILES beside them.

Key:
NaV1.3 [1] = molecular target: T1, NaV1.3 (Homo sapiens, UniProt Q9NY46); assay: Voltage dependence of steady-state inactivation and activation, NaV1.3; format: cell-based
T1 sequence (Q9NY46 whole entry): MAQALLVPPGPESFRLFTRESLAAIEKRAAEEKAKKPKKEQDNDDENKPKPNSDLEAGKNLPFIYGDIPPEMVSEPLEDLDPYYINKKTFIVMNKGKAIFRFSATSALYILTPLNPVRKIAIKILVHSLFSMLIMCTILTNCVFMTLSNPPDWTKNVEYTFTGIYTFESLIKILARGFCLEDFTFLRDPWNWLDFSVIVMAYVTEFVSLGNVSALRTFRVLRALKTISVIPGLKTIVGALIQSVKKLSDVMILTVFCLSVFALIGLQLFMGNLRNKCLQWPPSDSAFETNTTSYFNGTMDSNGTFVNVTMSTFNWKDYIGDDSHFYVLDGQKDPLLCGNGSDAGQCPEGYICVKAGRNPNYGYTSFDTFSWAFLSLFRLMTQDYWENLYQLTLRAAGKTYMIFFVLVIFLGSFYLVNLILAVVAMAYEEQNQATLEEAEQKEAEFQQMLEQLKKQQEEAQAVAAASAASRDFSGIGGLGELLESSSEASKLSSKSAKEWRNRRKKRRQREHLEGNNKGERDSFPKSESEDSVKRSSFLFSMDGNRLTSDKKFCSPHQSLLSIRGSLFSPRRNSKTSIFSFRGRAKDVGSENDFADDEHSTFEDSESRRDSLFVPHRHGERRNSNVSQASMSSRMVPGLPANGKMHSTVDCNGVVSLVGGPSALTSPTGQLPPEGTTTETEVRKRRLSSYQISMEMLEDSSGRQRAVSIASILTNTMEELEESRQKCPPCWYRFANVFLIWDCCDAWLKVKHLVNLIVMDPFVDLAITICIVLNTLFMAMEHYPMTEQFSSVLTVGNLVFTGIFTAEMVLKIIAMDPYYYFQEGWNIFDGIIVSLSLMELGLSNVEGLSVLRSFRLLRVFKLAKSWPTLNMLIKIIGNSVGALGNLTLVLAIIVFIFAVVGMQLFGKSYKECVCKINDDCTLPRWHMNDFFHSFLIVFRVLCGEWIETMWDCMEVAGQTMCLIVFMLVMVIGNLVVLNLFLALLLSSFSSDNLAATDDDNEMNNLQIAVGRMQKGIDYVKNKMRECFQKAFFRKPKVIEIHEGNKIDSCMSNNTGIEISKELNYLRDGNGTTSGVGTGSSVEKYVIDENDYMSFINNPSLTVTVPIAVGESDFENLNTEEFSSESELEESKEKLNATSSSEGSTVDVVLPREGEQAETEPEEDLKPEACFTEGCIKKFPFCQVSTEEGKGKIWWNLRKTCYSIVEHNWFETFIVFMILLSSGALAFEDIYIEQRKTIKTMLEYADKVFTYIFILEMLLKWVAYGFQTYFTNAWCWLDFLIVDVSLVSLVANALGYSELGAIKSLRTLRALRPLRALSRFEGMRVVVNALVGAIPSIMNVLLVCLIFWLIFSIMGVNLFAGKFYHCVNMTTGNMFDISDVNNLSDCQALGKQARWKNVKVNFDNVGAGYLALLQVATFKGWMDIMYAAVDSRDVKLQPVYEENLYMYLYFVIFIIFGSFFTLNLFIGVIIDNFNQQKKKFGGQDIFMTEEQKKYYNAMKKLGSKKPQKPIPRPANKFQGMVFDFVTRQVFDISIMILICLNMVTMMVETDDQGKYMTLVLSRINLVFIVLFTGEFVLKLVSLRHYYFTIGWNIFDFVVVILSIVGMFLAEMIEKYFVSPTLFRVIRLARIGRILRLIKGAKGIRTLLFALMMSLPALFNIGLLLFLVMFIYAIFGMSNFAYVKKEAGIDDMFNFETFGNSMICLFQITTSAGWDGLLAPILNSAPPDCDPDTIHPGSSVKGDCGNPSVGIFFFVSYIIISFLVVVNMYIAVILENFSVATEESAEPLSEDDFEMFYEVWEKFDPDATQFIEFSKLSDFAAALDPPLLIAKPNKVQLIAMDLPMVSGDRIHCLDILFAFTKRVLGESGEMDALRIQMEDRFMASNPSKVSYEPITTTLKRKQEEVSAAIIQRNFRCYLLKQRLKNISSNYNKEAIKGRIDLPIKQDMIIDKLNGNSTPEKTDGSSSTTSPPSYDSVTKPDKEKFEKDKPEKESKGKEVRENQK
T1 sequence (Q07699 19-218, further chain): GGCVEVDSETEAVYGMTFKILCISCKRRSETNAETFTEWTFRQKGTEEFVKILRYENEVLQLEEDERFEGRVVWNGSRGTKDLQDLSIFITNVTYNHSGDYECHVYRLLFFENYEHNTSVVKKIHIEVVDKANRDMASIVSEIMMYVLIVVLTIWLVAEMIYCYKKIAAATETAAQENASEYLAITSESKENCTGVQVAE
Protocol: The voltage dependence of steady-state activation was assessed by recording sodium currents evoked by depolarizing voltage steps ranging from −110 mV to +80 mV in 5 mV increments. Peak conductance (GNa) was derived using the equation G = I/(V − Vrev), where I denotes the measured current, V the applied membrane potential, and Vrev the sodium reversal potential. To evaluate the voltage dependence of steady-state fast inactivation, a two-pulse protocol was used. Cells were conditioned with 500 ms pre-pulses at potentials between −130 mV and −10 mV (10 mV increments), followed by a 20 ms test depolarization to 0 mV to elicit sodium currents. The steady-state fast inactivation currents were plotted as I/Imax, where I = current value and Imax = highest current value within the experiment. The voltage-dependence of steady-state activation and inactivation were determined either in the absence of peptide or following 5 min exposure to peptide at the respective IC50 concentration at the NaV subtype analyzed to streamline the investigation using an effective single concentration as previously described by us.
(§1) For calcium influx experiments, bioactivity comparisons between venom fractions and controls were based on the difference between the maximal and minimal fluorescence intensity values obtained from single-replicate assays. Electrophysiological data analysis was conducted using GraphPad Prism (version 8; GraphPad Software, San Diego, CA, USA). Nonlinear regression was applied to fit the concentration–response relationships using a variable Hill slope: log(inhibitor) versus normalized response for determining IC50 values, and log(agonist) versus normalized response for EC50 calculations. Reversibility and dissociation kinetics were analyzed by fitting data with a single-phase exponential decay model, while voltage-dependence of steady-state activation and inactivation parameters were derived from Boltzmann sigmoid fits of normalized conductance (G/Gmax) or current (I/Imax) values to determine the half-activation or half-inactivation voltages (V50). Data are expressed as mean ± SEM, where n represents the number of individual cells analyzed.

NaV1.3 [2] = molecular target: T1, NaV1.3; assay: Slowing of fast inactivation of NaV1.3; format: cell-based; conditions: for Slowing of fast inactivation of NaV1.3 (in words): closed-state voltage protocol, current traces, concentrations up to those of IC50 curves
Protocol: Sodium channel currents were recorded from HEK293 cells expressing human NaV isoforms together with the β1 auxiliary subunit (SB Drug Discovery, Glasgow, UK) using the QPatch 16X automated whole-cell patch-clamp platform (Sophion Bioscience A/S, Ballerup, Denmark). The external recording solution contained (in mM) the following: 140 NaCl, 3 KCl, 1 CaCl2, 1 MgCl2, 0.1 CdCl2, 20 tetraethylammonium chloride (TEA-Cl), and 5 HEPES; pH was adjusted to 7.3 and osmolarity to 320 mOsm. The internal (pipette) solution consisted of (in mM) the following: 140 CsF, 10 NaCl, 10 HEPES, and 1/5 EGTA/CsOH, also adjusted to pH 7.3 and 320 mOsm. Cells were voltage-clamped at a holding potential of −80 mV, and inward Na^+ currents were evoked by 20 ms depolarizing pulses to 0 mV following a 200 ms hyperpolarizing prepulse to −120 mV. To obtain concentration–response curves, cells at holding potential were incubated for 5 min with increasing concentrations of Oa1a peptides. For determining the potency of Oa1a peptides to inhibit peak current, the maximum peak current within the 20 ms at 0 mV was measured. For determining the potency of Oa1a-NH2 to slow fast inactivation, peak current values were measured at 20 ms of the 0 mV depolarization step. Ion currents (INa) were plotted as I/Imax, where I = current value and Imax = highest current value within the experiment.
as §1

| Compound | V50 of steady-state activation in presence of peptide, NaV1.3 (NaV1.3 [1]; control V50 = −21 ± 0.4 mV, steps −110 to +80 mV in 5 mV increments, mean ± SEM, 3 to 5 repeats) | V50 of steady-state inactivation in presence of peptide, NaV1.3 (NaV1.3 [1]; control V50 = −71 ± 0.71 mV, 5 min exposure at IC50 concentration, 23 nM, 500 ms pre-pulses −130 to −10 mV, mean ± SEM, 3 to 5 repeats) | ΔV50 of steady-state inactivation, NaV1.3 (NaV1.3 [1]; peptide vs control, shift to more depolarized potentials, 3 to 5 repeats) | Shift in voltage of activation, NaV1.3 (NaV1.3 [1]; presence of 23 nM sOa1a-NH2) | Slowing of fast inactivation of NaV1.3 (in words) (NaV1.3 [2]) | EC50 (NaV1.3 [2]; current measured at 20 ms of the 0 mV depolarization step, 5 min incubation, mean ± SEM, 3 to 5 repeats) |
| --- | --- | --- | --- | --- | --- | --- |
| CC(C)C[C@@H]1NC(=O)[C@H](Cc2ccccc2)NC(=O)[C@H](Cc2ccc(O)cc2)NC(=O)[C@H](CCCNC(=N)N)NC(=O)[C@@H](NC(=O)[C@@H](N)CCC(=O)O)CSSC[C@@H]2NC(=O)[C@@H]3CSSC[C@@H](C(=O)N[C@H](C(=O)N[C@@H](Cc4c[nH]c5ccccc45)C(=O)N[C@@H](CC(=O)O)C(=O)N[C@@H](Cc4c[nH]c5ccccc45)C(=O)N[C@H](C(=O)N[C@@H](Cc4ccccc4)C(N)=O)[C@@H](C)O)C(C)C)NC(=O)[C@H](Cc4c[nH]c5ccccc45)NC(=O)[C@H](CCC(N)=O)NC(=O)[C@H](Cc4c[nH]cn4)NC(=O)[C@H](CCCCN)NC(=O)[C@H](CC(N)=O)NC(=O)[C@H](Cc4c[nH]cn4)NC(=O)[C@H](CSSC[C@H](NC(=O)CNC(=O)CNC1=O)C(=O)N[C@@H](CO)C(=O)N[C@@H](CCC(N)=O)C(=O)NCC(=O)N[C@@H](CCC(=O)O)C(=O)N[C@@H](CCCCN)C(=O)N3)NC(=O)[C@H](C(C)C)NC(=O)[C@H](CC(C)C)NC(=O)[C@H](Cc1c[nH]cn1)NC(=O)[C@H](CCC(=O)O)NC2=O [sOa1a-NH2] (H-ECRYFLGGCSQGEKCCEHLVCHNKHQWCVWDWTF-NH2; disulfide 2-16, 9-21, 15-28; N-terminus assumed) | −26 mV | -57 ± 1.4 mV and −57 mV | 14 mV | ≤ 5 mV | strongly slowing the fast inactivation of NaV1.3 | 0.0229 ± 0.0018 µM |
| CC(C)C[C@@H]1NC(=O)[C@H](Cc2ccccc2)NC(=O)[C@H](Cc2ccc(O)cc2)NC(=O)[C@H](CCCNC(=N)N)NC(=O)[C@@H](NC(=O)[C@@H](N)CCC(=O)O)CSSC[C@@H]2NC(=O)[C@@H]3CSSC[C@@H](C(=O)N[C@H](C(=O)N[C@@H](Cc4c[nH]c5ccccc45)C(=O)N[C@@H](CC(=O)O)C(=O)N[C@@H](Cc4c[nH]c5ccccc45)C(=O)N[C@H](C(=O)N[C@@H](Cc4ccccc4)C(=O)O)[C@@H](C)O)C(C)C)NC(=O)[C@H](Cc4c[nH]c5ccccc45)NC(=O)[C@H](CCC(N)=O)NC(=O)[C@H](Cc4c[nH]cn4)NC(=O)[C@H](CCCCN)NC(=O)[C@H](CC(N)=O)NC(=O)[C@H](Cc4c[nH]cn4)NC(=O)[C@H](CSSC[C@H](NC(=O)CNC(=O)CNC1=O)C(=O)N[C@@H](CO)C(=O)N[C@@H](CCC(N)=O)C(=O)NCC(=O)N[C@@H](CCC(=O)O)C(=O)N[C@@H](CCCCN)C(=O)N3)NC(=O)[C@H](C(C)C)NC(=O)[C@H](CC(C)C)NC(=O)[C@H](Cc1c[nH]cn1)NC(=O)[C@H](CCC(=O)O)NC2=O [sOa1a-OH] (H-ECRYFLGGCSQGEKCCEHLVCHNKHQWCVWDWTF-OH; disulfide 2-16, 9-21, 15-28; N-terminus assumed) |  |  |  |  | this dual modulatory activity was not observed |  |
